# Test results from the supplement of paper PMC11781733.
# Structures can show the parent of a compound that is named as a salt.
# Assays:
# Details in all cases: exposure time: 15 min to 3 h acute
# Dugesia japonica [1] = assay: crawl-out incidence (% planarians); higher = higher incidence or increase relative to vehicle control
# Method: (§1)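 Adult asexual Dugesia japonica planarians (1 per well, 48-well plate, n=24 over technical triplicates) were exposed acutely (15 min to 3 h) to each compound (0.5% DMSO or water vehicle) and screened on a robotic platform for crawl-out, stickiness, body shape, phototaxis, noxious-heat scrunching and locomotion endpoints. Binary endpoints are incidence rate x100. Continuous endpoints are the median response normalised to the plate vehicle median, as % change or difference. Negative incidences after vehicle subtraction were set to 0.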
# Dugesia japonica [2] = assay: speed in dark vs vehicle (% change vs vehicle); higher = higher incidence or increase relative to vehicle control
# Method: as §1, with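 “x100 normalised to in-plate vehicle controls.” for “x100.”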
# Dugesia japonica [3] = assay: C-shape incidence (% planarians (vehicle-normalised)); higher = higher incidence or increase relative to vehicle control
# Method: as §1, with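 “x100 normalised to in-plate vehicle controls.” for “x100.”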
# Dugesia japonica [4] = assay: corkscrew incidence (% planarians (vehicle-normalised)); higher = higher incidence or increase relative to vehicle control
# Method: as §1, with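 “x100 normalised to in-plate vehicle controls.” for “x100.”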
# Dugesia japonica [5] = assay: stickiness incidence (% planarians (vehicle-normalised)); higher = higher incidence or increase relative to vehicle control
# Method: as §1, with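 “x100 normalised to in-plate vehicle controls.” for “x100.”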
# Dugesia japonica [6] = assay: hyperkinesis incidence (% planarians (vehicle-normalised)); higher = higher incidence or increase relative to vehicle control
# Method: as §1, with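 “x100 normalised to in-plate vehicle controls.” for “x100.”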
# Dugesia japonica [7] = assay: speed first 30 s blue light vs vehicle (% change vs vehicle); higher = higher incidence or increase relative to vehicle control
# Method: as §1, with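 “x100 normalised to in-plate vehicle controls.” for “x100.”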
# Dugesia japonica [8] = assay: speed second 30 s blue light vs vehicle (% change vs vehicle); higher = higher incidence or increase relative to vehicle control
# Method: as §1, with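 “x100 normalised to in-plate vehicle controls.” for “x100.”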
# Dugesia japonica [9] = assay: pharynx extrusion incidence (% planarians (vehicle-normalised)); higher = higher incidence or increase relative to vehicle control
# Method: as §1, with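 “x100 normalised to in-plate vehicle controls.” for “x100.”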
# Dugesia japonica [10] = assay: loss of phototaxis incidence (% planarians (vehicle-normalised)); higher = higher incidence or increase relative to vehicle control
# Method: as §1, with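 “x100 normalised to in-plate vehicle controls.” for “x100.”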
# Dugesia japonica [11] = assay: total locomotor bursts minus vehicle (bursts difference vs vehicle); higher = higher incidence or increase relative to vehicle control
# Method: as §1, with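 “x100 normalised to in-plate vehicle controls.” for “x100.”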
# Dugesia japonica [12] = assay: noxious heat displacement strength vs vehicle (% change vs vehicle); higher = higher incidence or increase relative to vehicle control
# Method: as §1, with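 “x100 normalised to in-plate vehicle controls.” for “x100.”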
# Dugesia japonica [13] = assay: contracted body shape incidence (% planarians (vehicle-normalised)); higher = higher incidence or increase relative to vehicle control
# Method: as §1, with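 “x100 normalised to in-plate vehicle controls.” for “x100.”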
# Dugesia japonica [14] = assay: anxiety (time in outer well region) vs vehicle (% change vs vehicle); higher = higher incidence or increase relative to vehicle control
# Method: as §1, with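 “x100 normalised to in-plate vehicle controls.” for “x100.”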
# Dugesia japonica [15] = assay: any abnormal body shape incidence (% planarians (vehicle-normalised)); higher = higher incidence or increase relative to vehicle control
# Method: as §1, with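 “x100 normalised to in-plate vehicle controls.” for “x100.”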
# Dugesia japonica [16] = assay: resting fraction in dark vs vehicle (difference in fraction x100 vs vehicle); higher = higher incidence or increase relative to vehicle control
# Method: as §1, with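 “x100 normalised to in-plate vehicle controls.” for “x100.”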
# Dugesia japonica [17] = assay: loss of heat-induced scrunching incidence (% planarians (vehicle-normalised)); higher = higher incidence or increase relative to vehicle control
# Method: as §1, with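 “x100 normalised to in-plate vehicle controls.” for “x100.”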
# Dugesia japonica [18] = assay: resting fraction in blue light vs vehicle (difference in fraction x100 vs vehicle); higher = higher incidence or increase relative to vehicle control
# Method: as §1, with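 “x100 normalised to in-plate vehicle controls.” for “x100.”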
Structure (SMILES),crawl-out incidence (Dugesia japonica [1]),speed in dark (Dugesia japonica [2]),C-shape incidence (Dugesia japonica [3]),corkscrew incidence (Dugesia japonica [4]),stickiness incidence (Dugesia japonica [5]),hyperkinesis incidence (Dugesia japonica [6]),speed first 30 s blue light (Dugesia japonica [7]),speed second 30 s blue light (Dugesia japonica [8]),pharynx extrusion incidence (Dugesia japonica [9]),loss of phototaxis incidence (Dugesia japonica [10]),total locomotor bursts minus vehicle (Dugesia japonica [11]),noxious heat displacement strength (Dugesia japonica [12]),contracted body shape incidence (Dugesia japonica [13]),anxiety (Dugesia japonica [14]),any abnormal body shape incidence (Dugesia japonica [15]),resting fraction in dark (Dugesia japonica [16]),loss of heat-induced scrunching incidence (Dugesia japonica [17]),resting fraction in blue light (Dugesia japonica [18])
CC(NC(C)(C)C)C(=O)c1cccc(Cl)c1 (stereo unspecified) [bupropion] (316 µM),0,22.5,0,0,29.2,4.17,-72,-21.6,0,≤ 0,-7,-7.65,0,5.33,0,51.6,8.33,25.2
CC(NC(C)(C)C)C(=O)c1cccc(Cl)c1 (stereo unspecified) [bupropion] (1000 µM),0,-56.9,0,33.3,37.5,45.8,-64.2,-9.8,0,≤ 0,-2.5,-39.5,0,13.4,50,56.1,83.3,19.6
O=C1CC2(CCCC2)CC(=O)N1CCCCN1CCN(c2ncccn2)CC1 [buspirone] (3.16 µM),0,8.61,0,0,4.17,8.33,-21.3,-34.4,0,16.7,4.25,-34.1,0,-2.65,8.33,4.15,≤ 0,8.98
O=C1CC2(CCCC2)CC(=O)N1CCCCN1CCN(c2ncccn2)CC1 [buspirone] (10 µM),0,-20.5,0,0,16.7,20.8,-68.5,-54.8,0,25,6.25,-46.4,4.17,-1.55,20.8,16.7,8.33,26.6
O=C1CC2(CCCC2)CC(=O)N1CCCCN1CCN(c2ncccn2)CC1 [buspirone] (31.6 µM),0,-11.1,0,0,16.7,16.7,-64.5,-74.1,0,54.2,3.5,-57,0,7.76,16.7,3.7,62.5,34.3
O=C1CC2(CCCC2)CC(=O)N1CCCCN1CCN(c2ncccn2)CC1 [buspirone] (100 µM),12.5,-41,0,4.76,19.1,4.76,-79.9,-81.2,0,42.9,0.5,-53.2,0,-20.5,9.52,43,57.1,44.9
CN(C)CCCC1(c2ccc(F)cc2)OCc2cc(C#N)ccc21 (stereo unspecified) [citalopram hydrobromide] (31.6 µM),0,3.2,0,0,≤ 0,16.7,6.16,-6.94,0,16.7,1.25,-16.4,0,4.85,16.7,1.41,33.3,0
CN(C)CCCC1(c2ccc(F)cc2)OCc2cc(C#N)ccc21 (stereo unspecified) [citalopram hydrobromide] (100 µM),0,-4.27,0,0,8.33,8.33,-6.21,-0.52,0,≤ 0,1.5,-22.5,0,15.3,8.33,1.35,25,0
CN(C)CCCC1(c2ccc(F)cc2)OCc2cc(C#N)ccc21 (stereo unspecified) [citalopram hydrobromide] (316 µM),0,10.9,0,0,8.7,13,1.47,6.83,0,4.35,-3.5,-25.1,0,12.2,13,1.16,13,0.559
CN(C)CCCC1(c2ccc(F)cc2)OCc2cc(C#N)ccc21 (stereo unspecified) [citalopram hydrobromide] (1000 µM),0,-48.7,0,0,≤ 0,83.3,-57.3,-71.1,0,16.7,40.2,-42.7,0,11.2,83.3,17.8,8.33,16.8
CN1CCN(C2=Nc3cc(Cl)ccc3Nc3ccccc32)CC1 [clozapine] (3.16 µM),0,-74,0,4.17,20.8,20.8,-90.3,-87.9,0,16.7,26.8,-40.6,8.33,-27.9,20.8,74.7,33.3,69.7
CN1CCN(C2=Nc3cc(Cl)ccc3Nc3ccccc32)CC1 [clozapine] (10 µM),0,-75.7,4.17,4.17,25,54.2,-89.8,-90.5,0,29.2,15.2,-39.6,8.33,-100,58.3,73.9,75,70.9
